A short description of data set [1]: Inhibition of [3H]diltiazem binding to L-type calcium channel of rabbit skeletal muscle at 30 uM. The data set is classed as functional. The note with it: Oryctolagus cuniculus, Muscle tissue.
Data set [2] is described as follows: pKa value of the compound. The data set is classed as physicochemical.
Data set [3] in a line: Inhibition of [3H]diltiazem binding to L-type calcium channel of rabbit skeletal muscle at 5 uM. The data set is classed as functional. The note with it: Oryctolagus cuniculus, Muscle tissue.
Data set [4] can be described thus: Inhibition of [3H]diltiazem binding to L-type calcium channel of rabbit skeletal muscle. The format is functional, tissue-based, Oryctolagus cuniculus, Muscle tissue.
Data set [5] concerns the target Substance-P receptor (Homo sapiens, UniProt P25103). Description: Displacement of [125I]- Substance P from human Neurokinin 1 (hNK1) receptor expressed in CHO cells. The format is cell-based. (Displacement assays read how much labelled ligand stays bound in the presence of the test substance.)
Data set [6] deals with T1, Neuromedin-K receptor (Homo sapiens, UniProt P29371).
T1 sequence (P29371 whole entry): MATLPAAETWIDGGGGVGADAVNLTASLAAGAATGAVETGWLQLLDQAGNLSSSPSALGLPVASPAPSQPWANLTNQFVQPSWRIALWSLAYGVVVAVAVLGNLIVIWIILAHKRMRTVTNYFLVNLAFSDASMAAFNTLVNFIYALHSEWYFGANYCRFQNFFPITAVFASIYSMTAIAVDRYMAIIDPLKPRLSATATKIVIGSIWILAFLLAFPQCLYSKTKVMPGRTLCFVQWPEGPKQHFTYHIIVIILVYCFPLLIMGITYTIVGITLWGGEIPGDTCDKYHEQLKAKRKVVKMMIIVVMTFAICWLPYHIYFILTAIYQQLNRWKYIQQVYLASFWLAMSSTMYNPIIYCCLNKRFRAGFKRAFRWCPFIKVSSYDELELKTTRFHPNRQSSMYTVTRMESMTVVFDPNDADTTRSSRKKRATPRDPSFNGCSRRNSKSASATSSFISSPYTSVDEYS
Description: Tested for inhibition of human Tachykinin receptor 3.

Data set [7] deals with T2, Substance-K receptor (Homo sapiens, UniProt P21452).
T2 sequence (P21452 whole entry): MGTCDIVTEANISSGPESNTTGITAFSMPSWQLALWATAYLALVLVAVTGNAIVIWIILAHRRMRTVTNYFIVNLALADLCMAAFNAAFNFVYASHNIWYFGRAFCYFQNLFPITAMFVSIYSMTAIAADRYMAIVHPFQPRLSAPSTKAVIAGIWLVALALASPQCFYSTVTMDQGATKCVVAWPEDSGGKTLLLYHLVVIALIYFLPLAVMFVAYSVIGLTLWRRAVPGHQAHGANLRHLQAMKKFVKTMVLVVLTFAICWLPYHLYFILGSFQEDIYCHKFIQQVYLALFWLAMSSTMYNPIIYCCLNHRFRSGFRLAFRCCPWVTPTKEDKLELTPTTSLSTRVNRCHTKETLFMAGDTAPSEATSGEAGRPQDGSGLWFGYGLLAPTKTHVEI
Description: Tested for inhibition of human Neurokinin Tachykinin receptor 2.

Molecules are shown by their SMILES.

Consider 14 compounds from ChEMBL document CHEMBL1128634, “Piperidine-ether based hNK1 antagonists 2: Investigation of the effect of N-substitution” (Bioorg Med Chem Lett, 1995).

A word on the inhibition: it is the drop in the measured response relative to a control, in per cent. In general, pKa refers to the negative logarithm of the acid dissociation constant. Usually IC50 stands for the point on the concentration scale where inhibition reaches its midpoint.

Sequence of Substance-P receptor (P25103 whole entry): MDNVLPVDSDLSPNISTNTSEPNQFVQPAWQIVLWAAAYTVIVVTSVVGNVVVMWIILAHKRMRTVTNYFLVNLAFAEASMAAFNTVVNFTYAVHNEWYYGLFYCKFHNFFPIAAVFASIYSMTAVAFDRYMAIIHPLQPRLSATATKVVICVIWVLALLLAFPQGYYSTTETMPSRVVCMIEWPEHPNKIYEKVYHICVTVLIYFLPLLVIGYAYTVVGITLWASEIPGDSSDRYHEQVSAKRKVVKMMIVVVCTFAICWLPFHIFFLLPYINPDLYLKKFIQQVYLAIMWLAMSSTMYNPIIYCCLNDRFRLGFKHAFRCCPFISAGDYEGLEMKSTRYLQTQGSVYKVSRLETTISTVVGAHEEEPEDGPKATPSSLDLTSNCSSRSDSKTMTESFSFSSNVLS

As to `NC(=O)CN1CCC[C@H](OCc2cc(C(F)(F)F)cc(C(F)(F)F)c2)[C@@H]1c1ccccc1`, the inhibition at 30 µM in data set [1] amounted to 16%. The compound also returned a pKa in data set [2] of 5.4.
`COC(=O)C(=O)N1CCC[C@H](OCc2cc(C(F)(F)F)cc(C(F)(F)F)c2)[C@@H]1c1ccccc1`: the inhibition at 5 µM in data set [3] was found to be 0%.
`FC(F)(F)c1cc(CO[C@H]2CCCN[C@H]2c2ccccc2)cc(C(F)(F)F)c1`: the half-maximal inhibitory concentration (IC50) was 760 nM in data set [4], 0.87 nM in data set [5], more than 1000 nM in data set [6] and more than 1000 nM in data set [7].
As to `FC(F)(F)c1cc(CO[C@H]2CCCN(Cc3ccccc3)[C@H]2c2ccccc2)cc(C(F)(F)F)c1`, the IC50 in data set [4] amounted to 4.1 nM.
In data set [2], `NC(=O)CCN1CCC[C@H](OCc2cc(C(F)(F)F)cc(C(F)(F)F)c2)[C@@H]1c1ccccc1` displayed a pKa of 6.5. The inhibition at 5 µM in data set [3] stood at 98%.
Take `COc1ccccc1CN[C@H]1CCCN(CC(N)=O)[C@H]1c1ccccc1` (racemic): in data set [5], the IC50 turned out to be 227 nM.
On to `NC(=O)C(=O)N1CCC[C@H](OCc2cc(C(F)(F)F)cc(C(F)(F)F)c2)[C@@H]1c1ccccc1`, for which, in data set [5], the IC50 stood at 25 nM. Also, the inhibition at 5 µM in data set [3] was 0%.
With `COC(=O)CN1CCC[C@H](OCc2cc(C(F)(F)F)cc(C(F)(F)F)c2)[C@@H]1c1ccccc1`, the IC50 in data set [4] is 26 nM.
With `O=C(O)CN1CCC[C@H](OCc2cc(C(F)(F)F)cc(C(F)(F)F)c2)[C@@H]1c1ccccc1`, the inhibition at 5 µM in data set [3] is 7%.
Take `NC(=O)CCCN1CCC[C@H](OCc2cc(C(F)(F)F)cc(C(F)(F)F)c2)[C@@H]1c1ccccc1`: in data set [3], the inhibition at 5 µM turned out to be 98%.
Regarding `CN1CCC[C@H](OCc2cc(C(F)(F)F)cc(C(F)(F)F)c2)[C@@H]1c1ccccc1`, the IC50 in data set [4] is 720 nM.
`CN(C)C(=O)CN1CCC[C@H](OCc2cc(C(F)(F)F)cc(C(F)(F)F)c2)[C@@H]1c1ccccc1`: the inhibition at 5 µM in data set [3] was 0%.
As to `CC(=O)N1CCC[C@H](OCc2cc(C(F)(F)F)cc(C(F)(F)F)c2)[C@@H]1c1ccccc1`, the inhibition at 5 µM in data set [3] is 0%.
Same read-out and setting: with `CNC(=O)CN1CCC[C@H](OCc2cc(C(F)(F)F)cc(C(F)(F)F)c2)[C@@H]1c1ccccc1` the figure was 0%.
